Laboratory results published in patent US20260083674A1, “OXAZOLIDINONE LIPOSOME COMPOSITIONS” (priority 2021, published 2026).

Columns and labels:
[1] = male, Sprague-Dawley, rat, in vivo, po, 50 mg/kg
Protocol: For plasma drug measurements, 0.5 ml blood was collected in lithium heparin tubes at 5 min, 15 min, 1 h, 3 h, 6 h, 24 h, 48 h, and 72 h. The samples were centrifuged and the resultant plasma was separated and transferred to duplicate clear polypropylene tubes, frozen immediately over dry ice, and stored at −80° C. until analysis. The plasma concentration in rats was determined by HPLC. Non-compartment PK analyses were performed using Phoenix WinNonlin (Version 7.0).

M. tuberculosis Erdman = details: eight weeks, Balb/c and C3HeB/FeJ mice; cited from earlier work

CC(=O)NC[C@H]1CN(c2ccc(N3CCOCC3)c(F)c2)C(=O)O1 [Linezolid]
AUC0-last/Dose [1]: 5.64 [hr*μg/mL]/[mg/kg] | log 10 CFU counts, linezolid monotherapy (Lanoix et al.) (M. tuberculosis Erdman): 4-6 log 10 CFU
